Laboratory results taken from patent publication US12622912B2, “Application of pyrido[1,2-a]pyrimidinone analog” (GUANGZHOU JOYO PHARMATECH CO., LTD, priority 2021, dated 2026).
Read-outs that look alike come from different tables or passages of the source.

How the values were obtained:
[1] = tested on: PIK3CA-mutated cervical cancer cells; assay: CTG cell proliferation, cervical cancer cell lines; format: cell-based; conditions: across PIK3CA-mutated cervical cancer cell lines, 72 hours, Alpelisib: in two cell lines, read-out: half inhibitory concentration
Description: (2) Reagents • 1) FBS (fetal bovine serum) (purchased from ExCell, product number: FND500); • 2) RPMI1640 medium (purchased from Hyclone, product number: SH30809.01); • 3) McCoy's 5A medium (purchased from Gibco, product number: 12330-031); • 4) MEM medium (purchased from Hyclone, product number: SH30024.01; • 5) MEM NEAA (purchased from Gibco, product number: 11140-050); • 6) Sodium pyruvate (purchased from Gibco). […]
Step 1: Cells in exponential growth phase were harvested, and viable cells were counted with a Vi-Cell XR cytometer. […]
(§1) Step 3: After 72 hours of drug treatment, 50 μL (½ culture volume) CTG solution that was melted and equilibrated to room temperature was added to each well according to the CTG operation instruction. […] After 10 minutes, the fluorescence signal value was measured with an Envision2104 plate reader.
(§2) Cell survival rate was calculated using the formula: Vsample/Vvehicle control×100%. Where, Vsample was the reading of the drug treatment group, and Vvehicle control was the average value of the solvent control group. GraphPad Prism 5.0 software was used, and a S-type dosage-survival rate curve was drawn using a nonlinear regression model and IC50 value was calculated.

[2] = tested on: T47D PIK3CA-mutated breast cancer cell line; assay: CTG cell proliferation, T47D; format: cell-based; conditions: 72 hours, read-out: Absolute IC50
Description: (§3) (2) Reagents • 1) FBS (fetal bovine serum) (purchased from ExCell, product number: FND500); • 2) DMEM medium (purchased from Gibco, product number: C11995500BT); • 3) Insulin (purchased from Gibco, product number: EPX010-12003-901); • 4) RPMI1640 medium (purchased from Hyclone, product number: SH30809.01); • 5) MEM medium (purchased from Hyclone, product number: SH30024.01). (3) Test Article and Positive Control Article • Test article: compound I; • Positive control article: Cisplatin, Molecular weight: 300.05; Solvent: PBS (phosphate buffer saline); Storage condition: 2-8° C.; Supplier: Qilu Pharmaceutical. (4) The CTG Method was Used to Determine the Cell Proliferation IC50 of the Compound.
(§4) Step 1: Cells in exponential growth phase were harvested, and viable cells were counted with a Vi-Cell XR cytometer. The cell suspension was adjusted to an appropriate concentration with medium. 90 μL of cell suspension was added to each well of a 96-well cell culture plate, and the final cell concentration was 1500-6000 cells/well.
(§5) Step 2: The initial concentration of administration of compound I was 3 μM, and the initial concentration of administration of the control drug Cisplatin was 100 μM, and serially diluted 3-fold, a total of 9 concentration gradients and a DMSO control, the final concentration of DMSO in each well was 0.1%, placed in a 37° C., 5% CO2 incubator for 72 hours.
as §1, §2

[3] = tested on: ME-180 PIK3CA-mutated cervical cancer cell line; assay: CTG cell proliferation, ME-180; format: cell-based; conditions: Homo sapiens; ME-180, CTG, 72 hours; read-out: Absolute IC50
Description: (§6) (2) Reagents • 1) FBS (fetal bovine serum) (purchased from ExCell, product number: FND500); • 2) RPMI1640 medium (purchased from Hyclone, product number: SH30809.01); • 3) McCoy's 5A medium (purchased from Gibco, product number: 12330-031); • 4) MEM medium (purchased from Hyclone, product number: SH30024.01; • 5) MEM NEAA (purchased from Gibco, product number: 11140-050); • 6) Sodium pyruvate (purchased from Gibco). (3) Test Article and Positive Control Article • Test article: compound I; Positive Control Article: • 1) Alpelisib, molecular weight: 441.47; solvent: DMSO; storage condition after dissolution: −20° C.; supplier: Shanghai TOPSCIENCE Biochemical Technology Co., Ltd., CAS number: 1217486-61-7; • 2) Cisplatin, molecular weight: 300.05; solvent: PBS (phosphate buffer saline); storage condition: 2-8° C.; supplier: Qilu Pharmaceutical. (4) The CTG Method was Used to Determine the Cell Proliferation IC50 of the Compound
as §4, with “cells/well. […]” for “cells/well.”
as §1, §2

[4] = tested on: C-33A PIK3CA-mutated cervical cancer cell line; assay: CTG cell proliferation, C-33A; format: cell-based; conditions: Homo sapiens, 72 hours, read-out: Absolute IC50
Description: as §6
as §4, with “cells/well. […]” for “cells/well.”
as §1, §2

[5] = tested on: HEC-1-B PIK3CA-mutated endometrial cancer cell line; assay: CTG cell proliferation, HEC-1-B; format: cell-based; conditions: read-out: Absolute IC50
Description: (2) Reagents • 1) FBS (fetal bovine serum) (purchased from ExCell, product number: FND500); • 2) McCoy's 5A medium (purchased from Gibco, product number: 12330-031); • 3) MEM medium (purchased from Hyclone, product number: SH30024.01). (3) Test Article and Positive Control Article • Test article: compound I; • Positive control article: Alpelisib, molecular weight: 441.47; solvent: DMSO; storage condition after dissolution: −20° C.; supplier: Shanghai TOPSCIENCE Biochemical Technology Co., Ltd., CAS number: 1217486-61-7; (4) The CTG Method was Used to Determine the Cell Proliferation IC50 of the Compound
as §4
Step 2: The initial concentration of administration of compound I and the control drug Alpelisib was 3 μM, serially diluted 3-fold, a total of 9 concentration gradients and a DMSO control, the final concentration of DMSO in each well was 0.1%, placed in a 37° C., 5% CO2 incubator for 72 hours.
Step 3: After 72 hours of drug treatment, 50 μL (½ culture volume) CTG solution that was melted and equilibrated to room temperature was added to each well according to the CTG operation instruction. The solution was mixed well with a microplate shaker for 2 minutes, and placed at room temperature. After 10 minutes, the fluorescence signal value was measured with an Envision2104 plate reader.
as §2

[6] = tested on: BT-474 PIK3CA-mutated breast cancer cell line; assay: CTG cell proliferation, BT-474; format: cell-based, human; conditions: BT-474, CTG, 72 hours, read-out: Absolute IC50
Description: as §3, §4, §5, §1, §2

COCCOc1cnc2ccc(-c3cnc(OC)c(NS(=O)(=O)c4sc(C)nc4C)c3)cn2c1=O [Compound I]
IC50 [1]: 15 to 180 nM
IC50 ([2]; listed as compound I): < 1000 nM
IC50 [2]: 17 nM
IC50 [3]: 15 nM
IC50 [4]: 180 nM
IC50 ([5]; 72 hours): 52 nM
IC50 ([5]; Homo sapiens, HEC-1B, 72 h): ≤ 100 nM
IC50 ([6]; listed as compound I): < 1000 nM
IC50 [6]: 21 nM
